Assay results published in paper PMC12188386, “Selective CBP/EP300 Bromodomain Inhibitors: Novel Epigenetic Tools to Counter TNF-α-Driven Inflammation” (JACS Au, 2025).

What was measured:
Experiment in all cases: NCI-60 one-dose screen
Assay type in all cases: cell-based, human
COLO 205 = details: 10 µM, 48 h, Colon Cancer
Method: (§1) Adapted from NCI-60 Screening Methodology, one-dose screen:20 Briefly, human tumor cell lines, grown in RPMI 1640 containing 5% FBS and 2 mM L-glutamine, were plated in 96 well plates at densities ranging from 5,000 to 40,000 cells/well 24 h prior to addition of test compounds (here 10 μM 2). 400x solutions of test compounds were prepared in DMSO, then diluted to 2x in medium supplemented with 50 μg/mL gentamicin. 100 μl of this 2x stock was added to cells previously plated in 100 μl medium, resulting in the desired final compound concentration. Cells were fixed in situ with cold TCA: untreated cells at the time of compound addition (Tz) and treated cells 48 h after addition of compound (Ti). Cells were washed, then su f rh damine s uti n μ at . w/v in acetic acid was added to each well and incubated for 10 minutes at room temperature. After washing again, the plates were air dried and bound stain solubilized with 10 mM Trizma base before absorbance was […]
(§2) Percentage growth (%Growth) was calculated as follows:
(§3) when Ti ≥ Tz, %Growth = Ti − Tz x 100 where Ti = absorbance from compound treated cells, Tz = absorbance from untreated cells at time zero, and C = absorbance from control (DMSO) treated cells. […]

CAKI-1 = details: 10 µM, 48 h, Renal Cancer
Method: as §1, §2, §3

MCF7 = details: 10 µM, 48 h, Breast Cancer
Method: as §1, §2, §3

NCI/ADR-RES = details: 10 µM, 48 h, Ovarian Cancer
Method: as §1, §2, §3

MDA-MB-231/ATCC = details: 10 µM, 48 h, Breast Cancer
Method: as §1, §2, §3

M14 = details: 10 µM, 48 h, Melanoma
Method: as §1, §2, §3

NCI-H226 = details: 10 µM, 48 h, Non-Small Cell Lung Cancer
Method: as §1, §2, §3

U251 = details: 10 µM, 48 h, CNS Cancer
Method: as §1, §2, §3

SK-MEL-5 = details: 10 µM, 48 h, Melanoma, values <0 indicate lethality
Method: as §1, §2, §3

UO-31 = details: 10 µM, 48 h, Renal Cancer
Method: as §1, §2, §3

SNB-19 = details: 10 µM, 48 h, CNS Cancer
Method: as §1, §2, §3

SF-295 = details: 10 µM, 48 h, CNS Cancer
Method: as §1, §2, §3

IGROV1 = details: 10 µM, 48 h, Ovarian Cancer
Method: as §1, §2, §3

UACC-257 = details: 10 µM, 48 h, Melanoma
Method: as §1, §2, §3

SK-OV-3 = details: 10 µM, 48 h, Ovarian Cancer
Method: as §1, §2, §3

EKVX = details: 10 µM, 48 h, Non-Small Cell Lung Cancer
Method: as §1, §2, §3

MALME-3M = details: 10 µM, 48 h, Melanoma
Method: as §1, §2, §3

A498 = details: 10 µM, 48 h, Renal Cancer
Method: as §1, §2, §3

HOP-62 = details: 10 µM, 48 h, Non-Small Cell Lung Cancer
Method: as §1, §2, §3

K-562 = details: 10 µM, 48 h, Leukemia
Method: as §1, §2, §3

SF-539 = details: 10 µM, 48 h, CNS Cancer
Method: as §1, §2, §3

MDA-MB-435 = details: 10 µM, 48 h, Melanoma, values <0 indicate lethality
Method: as §1, §2, §3

HS 578T = details: 10 µM, 48 h, Breast Cancer
Method: as §1, §2, §3

SR = details: 10 µM, 48 h, Leukemia
Method: as §1, §2, §3

SN12C = details: 10 µM, 48 h, Renal Cancer
Method: as §1, §2, §3

OVCAR-3 = details: 10 µM, 48 h, Ovarian Cancer
Method: as §1, §2, §3

OVCAR-8 = details: 10 µM, 48 h, Ovarian Cancer
Method: as §1, §2, §3

SK-MEL-28 = details: 10 µM, 48 h, Melanoma
Method: as §1, §2, §3

SF-268 = details: 10 µM, 48 h, CNS Cancer
Method: as §1, §2, §3

HOP-92 = details: 10 µM, 48 h, Non-Small Cell Lung Cancer
Method: as §1, §2, §3

KM12 = details: 10 µM, 48 h, Colon Cancer
Method: as §1, §2, §3

TK-10 = details: 10 µM, 48 h, Renal Cancer
Method: as §1, §2, §3

BT-549 = details: 10 µM, 48 h, Breast Cancer
Method: as §1, §2, §3

NCI-H23 = details: 10 µM, 48 h, Non-Small Cell Lung Cancer
Method: as §1, §2, §3

OVCAR-4 = details: 10 µM, 48 h, Ovarian Cancer
Method: as §1, §2, §3

ACHN = details: 10 µM, 48 h, Renal Cancer
Method: as §1, §2, §3

MOLT-4 = details: 10 µM, 48 h, Leukemia
Method: as §1, §2, §3

A549/ATCC = details: 10 µM, 48 h, Non-Small Cell Lung Cancer
Method: as §1, §2, §3

SW-620 = details: 10 µM, 48 h, Colon Cancer
Method: as §1, §2, §3

HCT-15 = details: 10 µM, 48 h, Colon Cancer
Method: as §1, §2, §3

RPMI-8226 = details: 10 µM, 48 h, Leukemia
Method: as §1, §2, §3

DU-145 = details: 10 µM, 48 h, Prostate Cancer
Method: as §1, §2, §3

HCC-2998 = details: 10 µM, 48 h, Colon Cancer
Method: as §1, §2, §3

NCI-H522 = details: 10 µM, 48 h, Non-Small Cell Lung Cancer
Method: as §1, §2, §3

**Q.** How did the “%Growth” value (COLO 205) turn out when `Cc1cc2c(NC(=O)c3cc(NC(=O)c4ccco4)cc(-c4ccn(C)n4)c3)cccc2nn1` [Compound 2] was run?
**A.** 32%

**Q.** And the “%Growth” value (CAKI-1)?
**A.** 22%

**Q.** What about the “%Growth” value (MCF7) of the same compound?
**A.** 22%

**Q.** What about the “%Growth” value (NCI/ADR-RES) of the same compound?
**A.** 91%

**Q.** And the “%Growth” value (MDA-MB-231/ATCC)?
**A.** 57%

**Q.** What about the “%Growth” value (M14) of the same compound?
**A.** 25%

**Q.** What about the “%Growth” value (NCI-H226) of the same compound?
**A.** 49%

**Q.** And the “%Growth” value (U251)?
**A.** 61%

**Q.** And the “%Growth” value (SK-MEL-5)?
**A.** -36%

**Q.** And the “%Growth” value (UO-31)?
**A.** 43%

**Q.** What about the “%Growth” value (SNB-19) of the same compound?
**A.** 66%

**Q.** And the “%Growth” value (SF-295)?
**A.** 42%

**Q.** And the “%Growth” value (IGROV1)?
**A.** 54%

**Q.** What about the “%Growth” value (UACC-257) of the same compound?
**A.** 66%

**Q.** And the “%Growth” value (SK-OV-3)?
**A.** 86%

**Q.** And the “%Growth” value (EKVX)?
**A.** 63%

**Q.** And the “%Growth” value (MALME-3M)?
**A.** 40%

**Q.** What about the “%Growth” value (A498) of the same compound?
**A.** 91%

**Q.** What about the “%Growth” value (HOP-62) of the same compound?
**A.** 67%

**Q.** What about the “%Growth” value (K-562) of the same compound?
**A.** 29%

**Q.** What about the “%Growth” value (SF-539) of the same compound?
**A.** 44%

**Q.** And the “%Growth” value (MDA-MB-435)?
**A.** -47%

**Q.** What about the “%Growth” value (HS 578T) of the same compound?
**A.** 19%

**Q.** And the “%Growth” value (SR)?
**A.** 19%

**Q.** And the “%Growth” value (SN12C)?
**A.** 63%

**Q.** What about the “%Growth” value (OVCAR-3) of the same compound?
**A.** 23%

**Q.** What about the “%Growth” value (OVCAR-8) of the same compound?
**A.** 67%

**Q.** What about the “%Growth” value (SK-MEL-28) of the same compound?
**A.** 68%

**Q.** And the “%Growth” value (SF-268)?
**A.** 72%

**Q.** And the “%Growth” value (HOP-92)?
**A.** 63%

**Q.** What about the “%Growth” value (KM12) of the same compound?
**A.** 28%

**Q.** And the “%Growth” value (TK-10)?
**A.** 78%

**Q.** And the “%Growth” value (BT-549)?
**A.** 33%

**Q.** What about the “%Growth” value (NCI-H23) of the same compound?
**A.** 71%

**Q.** What about the “%Growth” value (OVCAR-4) of the same compound?
**A.** 63%

**Q.** And the “%Growth” value (ACHN)?
**A.** 73%

**Q.** And the “%Growth” value (MOLT-4)?
**A.** 53%

**Q.** And the “%Growth” value (A549/ATCC)?
**A.** 61%

**Q.** And the “%Growth” value (SW-620)?
**A.** 52%

**Q.** What about the “%Growth” value (HCT-15) of the same compound?
**A.** 64%

**Q.** And the “%Growth” value (RPMI-8226)?
**A.** 32%

**Q.** What about the “%Growth” value (DU-145) of the same compound?
**A.** 87%

**Q.** What about the “%Growth” value (HCC-2998) of the same compound?
**A.** 66%

**Q.** And the “%Growth” value (NCI-H522)?
**A.** 3%
